Source: patent US6790958B2, “Purine inhibitors of cyclin dependent kinase 2 & IKBA” (priority 1996, dated 2004)
Converted amounts (≈) assume the structure as drawn.

Assays:
CDK2 = CDK2 (Homo sapiens, UniProt P24941); experiment: CDK2 assay (histone H1 phosphorylation, 32P-ATP filter assay); assay type: biochemical; details: concentration required to inhibit CDK2 activity by 50%; histone H1, 30 μM ATP, 30° C., 30 min; read-out: IC50 (μg/mL) enzyme (converted)
Experimental: Compositions of this invention were assayed to determine their CDK2 inhibitory activity. The assay system (total volume of 50 μl) contained 50 mM Tris-Cl, pH 7.4, 10 mMgCl2, 5 mM DTT, 1 μg of histone H1, 30 μM ATP (1 μCi of gamma ^32P labeled ATP?), 10 μg of BSA and 1 μg of purified CDK2. After incubation at 30° C. for 30 min, the reaction was terminated by the addition of 10 μl of 10% TCA and the samples were blotted onto to nitrocellulose filters. These filters were washed extensively in 10% TCA and assayed for radioactivity. Blanks contained no enzyme. […] After incubation at 30 min., the assay tubes Were processed as above.

[1] = tested on: rat aortic smooth muscle cells; experiment: Cell proliferation assay, rat aortic smooth muscle cells (MTS); assay type: cell-based; details: concentration required to inhibit cell proliferation by 50%, 48 hr incubation, read-out: IC50 (μg/mL) cells
Experimental: (§1) Early passage rat aortic smooth muscle cells (CV Therapeutics Cell repository) were seeded in 48 well dishes (Falcon, […]) at a density of 20,000 cells/ml of DME containing 5% heat inactivated bovine serum. The cells were incubated in a standard tissue culture incubator for 48 hr. The medium was aspirated and the wells were replenished with 0.2 ml of fresh medium. Compounds of this invention were added at concentrations ranging from 100 to 0.37 μg/ml. After 48 hr incubation, the medium was aspirated and the cultures were treated with 0.2 ml of saline 0.25 μl of phenozine methosulfate solution containing MTS (Cell Titer 96® Aqueous Non-radioactive cell proliferation assay kit, Catalog # G 5430, Promega, 2800 Woods Hollow Road, Madison, Wis. 53711-5399).

[2] = tested on: PupVSMC rat neonatal aortic smooth muscle cells; experiment: Cell proliferation assay, PupVSMC; assay type: cell-based; details: Rat neonatal aortic smooth muscle cells, Table 9; the values are: IC50
Experimental: as §1
(§2) Similar assays were performed using the following cell lines; P388—mouse lymphoid neoplasm; L1210—mouse lympheytic leukemia; Caco2 human colon adenocarcinoma; MCF7 human breast adenocarcinoma; PupVSMC rat neonatal aortic smooth muscle cells; Ovcar human ovarian Carcinoma; Pancl human pancreatic adenocarcinoma; and HUVEC human umbilical cord endothelial cells.

[3] = tested on: Pancl human pancreatic adenocarcinoma; experiment: Cell proliferation assay, Panc1; assay type: cell-based; details: Panc 1 cells
Experimental: as §1, §2

[4] = tested on: Ovcar human ovarian Carcinoma; experiment: Cell proliferation assay, OvCar; assay type: cell-based; details: OvCar cells
Experimental: as §1, §2

[5] = tested on: P388 mouse lymphoid neoplasm; experiment: Cell proliferation assay, P388; assay type: cell-based; details: P388 cells
Experimental: as §1, §2

[6] = tested on: L1210 mouse lympheytic leukemia; experiment: Cell proliferation assay, L1210; assay type: cell-based; details: Mus musculus, L1210; L 120 cells; read-out: IC50 (μg/ml) for Inhibition of Cell Proliferation, L 120
Experimental: as §1, §2

[7] = tested on: MCF7 human breast adenocarcinoma; experiment: Cell proliferation assay, MCF7; assay type: cell-based; details: Homo sapiens; MCF7 cells; read-out: IC50 (μg/ml) for Inhibition of Cell Proliferation, MCF7
Experimental: as §1, §2

[8] = tested on: Caco2 human colon adenocarcinoma; experiment: Cell proliferation assay, Caco2; assay type: cell-based; details: Homo sapiens, Caco-2; Caco2 cells; read-out: IC50 (μg/ml) for Inhibition of Cell Proliferation, Caco2
Experimental: as §1, §2

SMILES	IC50 (CDK2)	other results
CC(C)n1cnc2c(Nc3cccc(-c4ccc(C#N)cc4)c3)nc(N(CCO)CCO)nc21	1.09 µM	
COc1cccc(CNc2nc(N(CCO)CCO)nc3c2ncn3C(C)C)c1	1.25 µM	
COc1cccc(CNc2nc(Cl)nc3c2ncn3C(C)C)c1	2.71 µM	
CSc1cccc(Nc2nc(N(CCO)CCO)nc3c2ncn3C(C)C)c1	0.248 µM	
CC(C)n1cnc2c(NCc3ccc(-c4ccccn4)cc3)nc(N(CCO)CCO)nc21	0.358 µM	
CC(C)n1cnc2c(NCc3ccc(-c4cccs4)cc3)nc(N(CCO)CCO)nc21	1.1 µM	
Cc1ccc(-c2ccc(CNc3nc(N(CCO)CCO)nc4c3ncn4C(C)C)cc2)cc1	1.3 µM	
CC(C)n1cnc2c(NCc3ccc(-c4ccc(C(F)(F)F)cc4)cc3)nc(N(CCO)CCO)nc21	1.17 µM	
FC(F)(F)n1cnc2c(NCc3ccc(Cl)cc3)nc(Cl)nc21	2.76 µM	
COc1ccc(CNc2nc(Cl)nc3c2ncn3CCCCl)cc1	> 164 µM	
COc1ccc(CNc2nc(Cl)nc3c2ncn3CCCC#N)cc1	> 168 µM	
COc1ccc(CNc2nc(N(CCO)CCO)nc3c2ncn3C)cc1	10.7 µM	IC50 [1]: 48 µg/mL (≈ 129 µM)
COc1ccc(CNc2nc(NCCO)nc3c2ncn3C)cc1	12.2 µM	IC50 [1]: 48 µg/mL (≈ 146 µM)
COc1ccc(CNc2nc(Cl)nc3c2ncn3Cc2ccccc2)cc1	> 158 µM	IC50 [1]: > 70 µg/mL
COc1ccc(CNc2nc(N(CCO)CCO)nc3c2ncn3CCO)cc1	1.24 µM	IC50 [1]: 62 µg/mL (≈ 154 µM)
COc1ccc(CNc2nc(NC(CO)CO)nc3c2ncn3C(C)C)cc1		IC50 [1]: 15 µg/mL (≈ 38.8 µM)
COc1ccc(CNc2nc(NCC(O)CN)nc3c2ncn3C(C)C)cc1 (stereo not drawn)	1.56 µM	IC50 [1]: 25 µg/mL (≈ 64.9 µM)
COc1ccc(CNc2nc(N3CCCC(O)C3)nc3c2ncn3C(C)C)cc1 (stereo not drawn)	2.52 µM	
COc1ccc(CNc2nc(N3CC=CC3)nc3c2ncn3C(C)C)cc1	2.74 µM	IC50 [1]: 12.5 µg/mL (≈ 34.3 µM)
COc1ccc(CNc2nc(Cl)nc3c2ncn3C(C)C)cc1	12.1 µM	IC50 [1]: 77 µg/mL (≈ 232 µM)
COc1ccc(CNc2nc(N(CC(C)O)CC(C)O)nc3c2ncn3C(C)C)cc1 (stereo not drawn)	1.87 µM	
COc1ccc(CNc2nc(NCCO)nc3c2ncn3C(C)C)cc1	11.2 µM	IC50 [1]: 43 µg/mL (≈ 121 µM)
COc1ccc(CNc2nc(N(CCO)Cc3ccccc3)nc3c2ncn3C(C)C)cc1	2.24 µM	

SMILES	IC50 (CDK2)	other results
COc1ccc(CNc2nc(Cl)nc3c2ncn3C(F)(C(F)(F)F)C(F)(F)F)cc1	> 98.3 µM	
COc1ccc(CNc2nc(N(CCO)CCO)nc3c2ncn3C(F)(C(F)(F)F)C(F)(F)F)cc1	76 µM	
CC(C)n1cnc2c(Nc3ccc(-c4ccccc4)cc3)nc(N(CCO)CCO)nc21	1.39 µM	
CC(C)n1cnc2c(NCc3ccc(-c4ccccc4)cc3)nc(NCC(O)CO)nc21 (stereo not drawn)	1.39 µM	
CC(C)n1cnc2c(NCc3ccc(-c4ccccc4)cc3)nc(N(CCO)CCO)nc21	1.34 µM	
CSc1ccc(Nc2nc(Cl)nc3c2ncn3C(C)C)cc1	1.8 µM	
CSc1ccc(Nc2nc(N(CCO)CCO)nc3c2ncn3C(C)C)cc1	0.174 µM	
CC(=O)C(C)n1cnc2c(NCc3ccc(Cl)cc3)nc(N(CCO)CCO)nc21 (stereo not drawn)	85.5 µM	
CC(C)n1cnc2c(NCc3ccc(Cl)cc3)nc(NCCN)nc21	0.973 µM	
CC(C)n1cnc2c(NCc3ccc(Cl)cc3)nc(NCC(O)c3ccccc3)nc21 (stereo not drawn)	0.183 µM	IC50 [1]: > 5 µg/mL
CC(C)n1cnc2c(NCc3ccc(Cl)cc3)nc(NCCCN)nc21	2.67 µM	
CC(C)n1cnc2c(NCc3ccc(Cl)cc3)nc(NCCCCCN)nc21	77.1 µM	
CC(C)n1cnc2c(NCc3ccc(Cl)cc3)nc(N(CCO)CCO)nc21 [listing 1 of 2 here]	0.296 µM	
CC(C)[C@H](CO)Nc1nc(NCc2ccc(Cl)cc2)c2ncn(C(C)C)c2n1	0.472 µM	
CC(C)[C@@H](CO)Nc1nc(NCc2ccc(Cl)cc2)c2ncn(C(C)C)c2n1	0.124 µM	
CC(C)n1cnc2c(NCc3ccc(Cl)cc3)nc(NC[C@@H](C)O)nc21	1.15 µM	
CC(C)n1cnc2c(NCc3ccc(Cl)cc3)nc(N[C@H](C)CO)nc21	0.934 µM	
CC(C)n1cnc2c(NCc3ccc(Cl)cc3)nc(NC[C@@H](N)Cc3ccccc3)nc21	2.38 µM	
CC(C)n1cnc2c(NCc3ccc(Cl)cc3)nc(N[C@@H](C)CO)nc21	0.694 µM	
CC(C)n1cnc2c(NCc3ccc(Cl)cc3)nc(N[C@@H](Cc3ccccc3)C(N)=O)nc21	2.31 µM	
CC(C)n1cnc2c(NCc3ccc(Cl)cc3)nc(NC[C@H](C)O)nc21	1.01 µM	
CC(=O)C(C)n1cnc2c(NCc3ccc(F)cc3)nc(N(CCO)CCO)nc21 (stereo not drawn)	26.4 µM	
CCC(CO)Nc1nc(NCc2ccc(F)cc2)c2ncn(C(C)C)c2n1 (stereo not drawn)		IC50 [1]: 2.4 µg/mL (≈ 6.44 µM)

SMILES	IC50 (CDK2)	other results
CC(C)n1cnc2c(NCc3ccc(F)cc3)nc(NCCN)nc21		IC50 [1]: 1.4 µg/mL (≈ 4.08 µM)
CC(N)CNc1nc(NCc2ccc(F)cc2)c2ncn(C(C)C)c2n1 (stereo not drawn)	1.34 µM	
CC(CO)Nc1nc(NCc2ccc(F)cc2)c2ncn(C(C)C)c2n1 (stereo not drawn)	0.502 µM	
CC(C)n1cnc2c(NCc3ccc(F)cc3)nc(N(CCO)CCO)nc21	0.386 µM	IC50 [1]: 2.2 µg/mL (≈ 5.66 µM)
CC(C)[C@H](CO)Nc1nc(NCc2ccc(F)cc2)c2ncn(C(C)C)c2n1	0.155 µM	IC50 [1]: 2.7 µg/mL (≈ 6.99 µM)
CC(C)[C@@H](CO)Nc1nc(NCc2ccc(F)cc2)c2ncn(C(C)C)c2n1	0.492 µM	
CC(C)n1cnc2c(NCc3ccc(F)cc3)nc(NC[C@H]3CCCO3)nc21	1.51 µM	
CC(C)n1cnc2c(NCc3ccc(F)cc3)nc(NC[C@@H](C)O)nc21	0.642 µM	IC50 [1]: > 5 µg/mL
CC(C)n1cnc2c(NCc3ccc(F)cc3)nc(NC[C@@H]3CCCO3)nc21	1.64 µM	
CC(C)n1cnc2c(NCc3ccc(F)cc3)nc(NC[C@H](C)O)nc21	0.614 µM	
CC(C)n1cnc2c(NCC3CCCCC3)nc(Cl)nc21	3.25 µM	
CC(C)n1cnc2c(NCc3ccc4c(c3)OCO4)nc(N(CCO)CCO)nc21	1.93 µM	
CC(C)n1cnc2c(NCc3ccc(Cl)cc3)nc(N(CCO)CCO)nc21 [listing 2 of 2 here]		inhibitory activity, Pup VSMC [2]: 0.3 µg/mL
COc1ccc(CNc2nc(N3CCOCC3)nc3c2ncn3C(C)C)cc1		IC50 (μg/ml) for Inhibition of Cell Proliferation, Panc 1 [3]: 5.5 µg/mL; IC50 (μg/ml) for Inhibition of Cell Proliferation, OvCar [4]: 4.0 µg/mL; IC50 (μg/ml) for Inhibition of Cell Proliferation, P 388 [5]: >5 µg/mL
CC(C)n1cnc2c(NCc3ccc(Cl)cc3)nc(N(CCN)CCO)nc21 [2-[(2-aminoethyl)(6-{[(4-chlorophenyl)methyl]amino}-9-(methylethyl)purin-2-yl)amino]ethan-1-ol]		inhibitory activity, Pup VSMC [2]: 0.3 µg/mL
CC(C)n1cnc2c(NCc3ccc(-c4ccccc4)cc3)nc(N(CCO)CCO)nc21 [2-diethanolamino-6-(4-phenybenzylamino)-9-isopropyl Purine]		IC50 ([3]; Homo sapiens, read-out: IC50 (μg/ml) for Inhibition of Cell Proliferation, Panc 1): 1.3 µg/mL (≈ 2.91 µM); IC50 ([4]; Homo sapiens, read-out: IC50 (μg/ml) for Inhibition of Cell Proliferation, OvCar): 2 µg/mL (≈ 4.48 µM); IC50 [6]: 1 µg/mL (≈ 2.24 µM); IC50 [7]: 1 µg/mL (≈ 2.24 µM); IC50 [8]: 3.5 µg/mL (≈ 7.84 µM)
COc1ccc(CNc2nc(Cl)nc3c2ncn3C)cc1 [R1=4-methoxybenzylamino; R2=Me; R3=Cl]	19.8 µM	IC50 [1]: > 70 µg/mL
CC(C)n1cnc2c(Nc3ccccc3)nc(Cl)nc21 [R1=anilino; R2=isopropyl; R3=Cl]	3.48 µM	
OCCNc1nc(NCc2ccccc2)nc2[nH]cnc12 [R1=ethanolamino; R2=H; R3=Benzylamino]	> 211 µM	
Cn1cnc2c(NCCO)nc(NCCO)nc21 [R1=ethanolamino; R2=Me; R3=Ethanolamino]	> 238 µM	IC50 [1]: > 70 µg/mL
CC(N)CNc1nc(NCc2ccc(Cl)cc2)c2ncn(C(C)C)c2n1 (stereo not drawn) [{2-[(2-aminopropyl)amino]-9-(methylethyl)purin-6-yl}[(4-chlorophenyl)methyl]amine]		inhibitory activity, Pup VSMC [2]: 0.1 µg/mL
